The values below come from patent US12509421B2, “Preparation and application of deuterated 4-phenyl-4-piperidinols” (priority 2022, dated 2025).

Structures can show the parent of a compound that is named as a salt. Some results are limits rather than exact numbers.

The nature of data set [1]: Metabolic stability in liver microsomes, dog. Conditions: dog, microsomes, pH 7.4. The procedure: The solution B is slowly dropped into solution A, and the pH is adjusted to 7.40±0.05.
• Control drug: 4 μL Verapamil solution (10 mM) is added with 96 μL DMSO and diluted to 400 μM; • Compound to be tested: 4 μL compound to be tested (10 mM) is added with 96 μL normal saline and diluted to 400 μM.
The microsomes are stored in the refrigerator at −80° C., thawed at room temperature after being taken out, and mixed gently.
[…] PBS (100 mm, pH=7.4) solution is added to the negative sample. The solution is put into water bath at 37° C. and pre-incubated for 10 minutes; • B) After incubation, 2 μL reference drug or compound to be tested (400 μM) are added into each well to start the reaction.
For orientation: Microsomes from liver hold many membrane-bound enzymes, among them those of drug oxidation.

For a further data set, the target named is T1, μOR (Homo sapiens, UniProt P35372).
T1 construct: expressed in transfected cells; host or cells: CHO cells
T1 sequence (P35372 whole entry): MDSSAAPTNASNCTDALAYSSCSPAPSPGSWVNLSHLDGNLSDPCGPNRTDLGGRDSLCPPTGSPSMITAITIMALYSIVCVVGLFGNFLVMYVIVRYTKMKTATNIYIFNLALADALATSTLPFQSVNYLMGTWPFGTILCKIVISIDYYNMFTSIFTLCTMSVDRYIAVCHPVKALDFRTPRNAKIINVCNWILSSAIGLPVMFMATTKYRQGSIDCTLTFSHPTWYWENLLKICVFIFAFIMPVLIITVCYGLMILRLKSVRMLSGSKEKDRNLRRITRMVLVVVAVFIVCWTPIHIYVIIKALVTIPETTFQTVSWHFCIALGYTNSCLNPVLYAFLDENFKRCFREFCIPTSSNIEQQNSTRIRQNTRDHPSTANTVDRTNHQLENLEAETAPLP
In words: Opioid receptor competitive binding test, μOR. Conditions: compound at 10 μM; [3H]-labeled ligand; CHO cell membranes; ± SD of three measurements. In short, it runs like this:
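Membranes came from CHO cells expressing each opioid receptor; 20-30 µg protein was incubated with 1-2 nM [3H]-ligand and compound for 30 min at 30°C in Tris-HCl pH 7.4. Nonspecific binding was defined with 1 µM corresponding ligand. Bound radioactivity was filtered and scintillation-counted, and IC50 was converted to Ki via Cheng-Prusoff.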

Another data set has as its system ICR mice. In words: Evaluation of side effects of constipation (defecation time, number, weight). In kind it is in vivo. Conditions: for Number of defecating animals: 10 mice per group; for Number of defecating animals / Fecal weight: within 5 hours; for Defecation time: first black stool; for Defecation time / water content of feces / Fecal weight: x ± SE; for Defecation time / water content of feces: only animals that defecate within 5 hours. The procedure:
Constipation side effect is a common side effect of opioid drugs. This patent evaluates the possibility of constipation side effect by the influence of the compound on defecation time, defecation quantity and defecation weight of experimental animals.
ICR mice are randomly divided into 6 groups with 10 mice in each group after adaptive feeding. Fasting for 16-24 h, without stopping drinking, the blank control group is given solvent, during which the normal diet is: (1) the blank control group; (2) Compound diphenoxylate (7.5 mg/kg) group; (3) Low dose (1 mg/kg) group; (4) High dose (5 mg/kg) group of the compound to be tested.
After administration for 30 minutes, the mice in each group are given Chinese ink by gavage. After administration, the mice are kept in a single cage, and the excretion time of the first black stool is recorded. The number and weight (wet weight) of defecation particles in each mouse within 5 hours after administration are recorded. each group of mice are placed in an IVC cage with clean filter paper. The feces of each mouse are collected, put into a sterile 1.5 ml EP tube and stored in an ice box. During the collection, the number of defecation particles of each mouse is recorded, and the wet weight is weighed. After the collected feces are dried, the dry weight of the feces is recorded. Drying conditions: put fresh feces in an oven and bake at 100° C. for 5-10 minutes until the dry weight of feces is constant. The following formula is used to calculate the water content of feces, and the water content of feces (%)=(wet feces mass−dry feces mass)/wet feces mass×100%.
The data required for measurement and observation in this experiment are recorded in the corresponding table. All data are statistically processed by Microsoft Excel, and expressed as “mean standard error”. The data of each group are statistically analyzed by SPSS software package.

The next data set deals with T2, CYP 1A2 (Homo sapiens, UniProt P05177).
T2 sequence (P05177 1-516): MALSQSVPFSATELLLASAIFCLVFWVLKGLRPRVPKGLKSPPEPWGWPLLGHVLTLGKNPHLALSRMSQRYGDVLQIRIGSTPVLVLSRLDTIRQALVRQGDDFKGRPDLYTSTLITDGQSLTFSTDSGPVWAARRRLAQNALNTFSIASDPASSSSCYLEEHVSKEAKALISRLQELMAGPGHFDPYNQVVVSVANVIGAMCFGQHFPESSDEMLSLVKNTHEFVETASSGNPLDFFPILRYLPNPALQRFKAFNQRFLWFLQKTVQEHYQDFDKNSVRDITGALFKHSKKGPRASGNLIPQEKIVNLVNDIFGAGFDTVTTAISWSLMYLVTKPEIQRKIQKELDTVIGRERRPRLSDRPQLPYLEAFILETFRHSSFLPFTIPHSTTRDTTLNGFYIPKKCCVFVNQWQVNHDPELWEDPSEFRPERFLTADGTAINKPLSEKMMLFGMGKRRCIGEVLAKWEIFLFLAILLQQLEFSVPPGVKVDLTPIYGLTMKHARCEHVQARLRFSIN
In words: Inhibition of cytochrome P450 enzyme in human liver microsomes, CYP 1A2.

The target of another data set is CYP 3A4 (Homo sapiens, UniProt P08684). In words: biochemical. Conditions: CYP 3A4 IC50, human liver microsomes.
Sequence of CYP 3A4 (P08684 whole entry): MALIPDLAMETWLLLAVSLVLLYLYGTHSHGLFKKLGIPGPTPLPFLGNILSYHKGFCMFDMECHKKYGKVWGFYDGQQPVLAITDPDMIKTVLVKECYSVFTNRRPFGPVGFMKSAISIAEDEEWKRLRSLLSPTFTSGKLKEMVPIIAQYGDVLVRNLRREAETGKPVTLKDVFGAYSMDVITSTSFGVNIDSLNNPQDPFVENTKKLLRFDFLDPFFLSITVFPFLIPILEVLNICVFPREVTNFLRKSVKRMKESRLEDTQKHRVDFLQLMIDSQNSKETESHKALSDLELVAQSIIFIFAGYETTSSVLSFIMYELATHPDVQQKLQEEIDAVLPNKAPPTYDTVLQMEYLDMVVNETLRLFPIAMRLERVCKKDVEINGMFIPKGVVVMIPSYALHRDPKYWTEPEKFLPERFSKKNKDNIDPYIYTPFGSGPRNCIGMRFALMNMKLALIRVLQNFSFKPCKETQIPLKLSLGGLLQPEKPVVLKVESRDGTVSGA

As usually defined, the half-life is the time in which the quantity being followed falls by half. The low end stands for fast loss, the high end for slow loss. In general, microsomal CLint refers to a measure of how fast metabolising enzymes remove a compound, apart from limits set by blood flow. By IC50 is commonly meant the concentration that gives 50% inhibition. For `[2H]C([2H])([2H])Oc1cccc([C@]2(O)CCN(C(=O)Cc3cc(F)c(F)cc3F)C[C@H]2CN(C([2H])([2H])[2H])C([2H])([2H])[2H])c1` [II-11hydrochloride], in data set [1], the half-life at 2 μM came to 5.99 min and the microsomal CLint at 2 μM was determined as 703 µL/min/mg. This molecule showed a μOR binding rate on μOR of 24.3 ± 1.9%. In the data set on ICR mice (1 mg/kg), the “Number of defecating animals” value is 8, the Defecation time was 190.3 ± 12.7 min, the “water content of feces” value was found to be 43.5 ± 2.8% and the Fecal weight amounted to 0.3402 ± 0.0828 g. In the data set with ICR mice (5 mg/kg), the “Number of defecating animals” value was 2, the Defecation time is recorded as 265.9 ± 13.1 min, the “water content of feces” value came to 38.2 ± 9.5% and the Fecal weight stood at 0.0496 ± 0.0067 g. Moreover, the IC50 against CYP 1A2 was above 50 µM. Further, the IC50 at CYP 3A4 (substrate midazolam) is above 50 µM. Moreover, the half-maximal inhibitory concentration (IC50) at CYP 3A4 (substrate testosterone) was above 50 µM.
